Several values for one entry are separate records, joined by “and”; a condition that tells them apart may be missing. Equal entries are not always repeated. Entries after “also recorded” stand apart in the source; their conditions may differ.
Experiments:
[1] = tested on: SK-RC-52 xenografts; assay: Biodistribution of [64Cu]XYIMSR-06; type: in vivo, mice
Procedure: (§1) Cell Lines and Mouse Models. Animal experiments were performed in accordance with protocols approved by the Johns Hopkins Animal Care and Use Committee (ACUC). Six-week-old female NOD/SCID mice were purchased from the Animal Resource Core of the Sidney Kimmel Comprehensive Cancer Center of Johns Hopkins and were subcutaneously injected in the lower left flank or upper right flank with 1×10^6 SK-RC-52 cells in RPMI 1640 GlutaMAX™ media (Life Technologies, Frederick, Md.) supplemented with 1% fetal bovine serum (FBS). Mice were monitored for tumor size and used for SPECT/CT imaging when the size of the tumor reached 100 mm^3.
Biodistribution of [^64Cu]XYIMSR-06. Mice bearing SK-RC-52 xenografts within the upper right flank were injected intravenously with 740 kBq (20 μCi) of [^64Cu]XYIMSR-06 in 200 μL of PBS. For in vivo competition (binding specificity) studies, tumor-bearing mice were injected with 740 kBq (20 μCi) of [^64Cu]XYIMSR-06 and 200 nmole of 1 in 200 μL of PBS concurrently. At specific times after injection (1 h, 4 h, 8 h and 24 h), mice (n=5) were sacrificed by cervical dislocation with blood immediately collected by cardiac puncture. Heart, lungs, pancreas, spleen, fat, brain, muscle, small intestines, liver, stomach, kidney, urinary bladder, and tumor were also collected. Each organ was weighed and the tissue radioactivity was measured with an automated gamma counter (1282 Compugamma CS, Pharmacia/LKBNuclear, Inc., Mt. Waverly, Vic. Australia). The percentage of injected dose per gram of tissue (% ID/g) was calculated by comparison with samples of a standard dilution of the initial dose. All measurements were corrected for radioactive decay. Data were expressed as mean±standard deviation (SD). Prism software (GraphPAD, San Diego, Calif.) was used to determine statistical significance. Statistical significance was calculated using a paired t test. P-values […] were considered significant.

[2] = tested on: CAIX-expressing SK-RC-52 tumors; assay: PET/CT imaging of [64Cu]XYIMSR-06; type: in vivo, mice; conditions: 22.2 MBq (600 μCi) via tail vein
Procedure: as §1
PET/CT imaging of [^64Cu]XYIMSR-06. Mice harboring subcutaneous SK-RC-52 tumors within the upper right flank were injected intravenously (tail vein) with 22.2 MBq (600 μCi) of [^64Cu]XYIMSR-06 in 250 μL of PBS (pH=7.0). Anesthesia was then induced with 3% isoflurane and maintained with 2% isoflurane. Physiologic temperature was maintained with an external light source while the mouse was on the gantry. Whole body, 2-bed PET/CT imaging was performed using the SuperArgus small animal PET/CT scanner (Sedecal, Madrid, Spain), […] a 250-700 keV energy window. PET acquisition times were: 5 min/bed position (1 h post-injection of [^64Cu]XYIMSR-06); 10 min/bed position (4 and 8 h) and 20 min/bed position (24 h). […]

[3] = 24 h + block (200 nmole of 1 co-injected)

## CC(CCC(=O)N[C@@H](CC(=O)N[C@@H](CC(=O)N[C@@H](CCCCn1cc(CCCC(=O)Nc2nnc(S(N)(=O)=O)s2)nn1)C(=O)NCCOCCOCCNC(=S)Nc1ccc(CC2CN(CC(=O)[O-])CCN(CC(=O)[O-])CCN2CC(=O)O)cc1)C(=O)O)C(=O)O)(c1ccc(O)cc1)c1ccc(O)cc1.[64Cu+2] (some centres unmarked) [[^64Cu]XYIMSR-06]
[1]; 8 h post-injection
  Biodistribution: Fat: 0.28 ± 0.27 % ID/g
  Biodistribution: Heart: 0.65 ± 0.10 % ID/g
  Biodistribution: Kidney (kid): 8.14 ± 1.15 % ID/g
  Biodistribution: Liver: 0.99 ± 0.22 % ID/g
  Biodistribution: Lung: 4.64 ± 0.58 % ID/g
  Biodistribution: Muscle (mm): 0.21 ± 0.05 % ID/g
  Biodistribution: Pancreas: 0.47 ± 0.21 % ID/g
  Biodistribution: Sm. intestine: 1.98 ± 0.14 % ID/g
  Biodistribution: Spleen: 0.18 ± 0.02 % ID/g
  Biodistribution: Stomach: 4.02 ± 0.53 % ID/g
  Biodistribution: Tumor: 16.74 ± 1.58 % ID/g
  Tumor/Blood ratio: 129.6±18.8
  Tumor/kid (kidney) ratio: 2.1±0.26
  Tumor/mm (muscle) ratio: 84.3±21.0
[1]; 24 h
  all other tumor-to-organ ratios tested: ≥ 10.0
  tumor-to-lung ratio: 4.9
[1]; [3]
  Biodistribution: Bladder: 0.45 ± 0.50 % ID/g
  Biodistribution: Blood: 0.01 ± 0.08 % ID/g
  Biodistribution: Brain: 0.02 ± 0.01 % ID/g
  Biodistribution: Fat: 0.01 ± 0.01 % ID/g
  Biodistribution: Heart: 0.08 ± 0.01 % ID/g
  Biodistribution: Kidney (kid): 0.48 ± 0.09 % ID/g
  Biodistribution: Liver: 0.42 ± 0.04 % ID/g
  Biodistribution: Lung: 0.29 ± 0.05 % ID/g
  Biodistribution: Muscle (mm): 0.04 ± 0.06 % ID/g
  Biodistribution: Pancreas: 0.07 ± 0.02 % ID/g
  Biodistribution: Sm. intestine: 0.19 ± 0.05 % ID/g
  Biodistribution: Spleen: 0.11 ± 0.04 % ID/g
  Biodistribution: Stomach: 0.29 ± 0.04 % ID/g
  Biodistribution: Tumor: 1.20 ± 0.47 % ID/g
  Tumor/Blood ratio: 27.1 ± 26.7
  Tumor/kid (kidney) ratio: 2.4 ± 0.4
  Tumor/mm (muscle) ratio: 49.0 ± 28.7
[1]; 24 h post-injection
  Biodistribution: Bladder: 0.34 ± 0.09 % ID/g
  Biodistribution: Blood: 0.00 ± 0.06 % ID/g
  Biodistribution: Brain: 0.13 ± 0.02 % ID/g
  Biodistribution: Fat: 0.03 ± 0.01 % ID/g
  Biodistribution: Heart: 0.12 ± 0.03 % ID/g
  Biodistribution: Kidney (kid): 0.90 ± 0.12 % ID/g
  Biodistribution: Liver: 0.38 ± 0.03 % ID/g
  Biodistribution: Lung: 1.27 ± 0.38 % ID/g
  Biodistribution: Muscle (mm): 0.02 ± 0.01 % ID/g
  Biodistribution: Pancreas: 0.21 ± 0.29 % ID/g
  Biodistribution: Sm. intestine: 0.47 ± 0.03 % ID/g
  Biodistribution: Spleen: 0.09 ± 0.01 % ID/g
  Biodistribution: Stomach: 0.65 ± 0.04 % ID/g
  Biodistribution: Tumor: 6.2 % ID/g and 6.23 ± 1.41 % ID/g
  Tumor/Blood ratio: 142.6 ± 115.8
  Tumor/kid (kidney) ratio: 7.1 and 7.1 ± 2.5
  Tumor/mm (muscle) ratio: 261.3 ± 47.3
[1]; co-injection of 200 nmole of 1
  tumor uptake on co-injection of 200 nmole of 1: blocked tumor uptake
[1]; within 24 h
  radiotracer uptake within liver (in vivo stability of NOTA-64Cu chelation): no significant radiotracer uptake within liver
[2]
  PET/CT tumor imaging finding: radiotracer uptake in tumor as early as 1 h post-injection; also recorded: At 1 h, tumor could be observed distinctly
